PubChem BioAssay AID1915 (Broad Institute, 2009)
Results filed as inconclusive are left out.

Tested on: Group A Streptococcus UMAA2166 viability, BacTiterGlo luminescence, 6 h
Assay: Group A Streptococcus viability loss, dose response, counter-screen for streptokinase expression inhibitor project, luminescence, BacTiterGlo (AID 1915)

Row | Structure (SMILES) | IC50
1 | CNC(CC(C)C)C(=O)NC1C(=O)NC(CC(N)=O)C(=O)NC2C(=O)NC3C(=O)NC(C(=O)NC(C(=O)O)c4cc(O)cc(O)c4-c4cc3ccc4O)C(O)c3ccc(c(Cl)c3)Oc3cc2cc(c3OC2OC(CO)C(O)C(O)C2OC2CC(C)(N)C(O)C(C)O2)Oc2ccc(cc2Cl)C1O (configuration not stated) | 0.341 µM
2 | CN(C)c1ccnc2c[cH-]cc12.[Fe].c1ccc(-[c-]2[c-](-c3ccccc3)[c-](-c3ccccc3)[c-](-c3ccccc3)[c-]2-c2ccccc2)cc1 (configuration not stated) | 8.69 µM
